Measurements: patent US12559494B2, “Functionalized lactams as modulators of the 5-hydroxytryptamine receptor 7 and their method of use” (Temple University - Of The Commonwealth System of Higher …, priority 2018, dated 2026)
Where a name gives a salt, the structure may show the parent alone. Read-outs that look alike come from different tables or passages of the source.

Legend:
5HT7 receptors [1] = target: T1, 5HT7 receptors (Homo sapiens, UniProt P34969); assay: Radiolabeled binding (IC50 and Ki), [3H]LSD competition on membranes of cells expressing recombinant 5HT7 receptors; design: expressed in transfected cells
Method: Radiolabel Binding Studies for Serotonin 5HT7 Receptors, Method 1:
(§1) A solution of the compound of the disclosure to be tested is prepared as a 1-mg/ml stock in Assay Buffer or DMSO according to its solubility. A similar stock of the reference compound chlorpromazine is also prepared as a positive control. Eleven dilutions (5×assay concentration) of the compound of the disclosure and chlorpromazine are prepared in the Assay Buffer by serial dilution to yield final corresponding assay concentrations ranging from 10 pM to 10 μM.
A stock concentration of 5 nM [^3H]LSD (lysergic acid diethyl amide) is prepared in 50 mM Tris-HCl, 10 mM MgCl2, 1 mM EDTA, pH 7.4 (Assay Buffer). Aliquots (50 μl) of radioligand are dispensed into the wells of a 96-well plate containing 100 μl of Assay Buffer. Duplicate 50-μl aliquots of the compound of the disclosure test and chlorpromazine positive control reference compound serial dilutions are added.
Membrane fractions of cells expressing recombinant 5HT7 receptors (50 μL) are dispensed into each well. The membranes are prepared from stably transfected cell lines expressing 5HT7 receptors cultured on 10-cm plates by harvesting PBS-rinsed monolayers, resuspending and lysing in chilled, hypotonic 50 mM Tris-HCl, pH 7.4, centrifuging at 20,000×g, decanting the supernatant and storing at −80° C.; the membrane preparations are resuspended in 3 ml of chilled Assay Buffer and homogenized by several passages through a 26 gauge needle before using in the assay.
The 250-μl reactions are incubated at room temperature for 1.5 hours, then harvested by rapid filtration onto 0.3% polyethyleneimine-treated, 96-well filter mats using a 96-well Filtermate harvester. Four rapid 500-μl washes are performed with chilled Assay Buffer to reduce non-specific binding. The filter mats are dried, then scintillant is added to the filters and the radioactivity retained on the filters is counted in a Microbeta scintillation counter.
Raw data (dpm) representing total radioligand binding (i.e., specific+non-specific binding) are plotted as a function of the logarithm of the molar concentration of the competitor (i.e., test or reference compound). Non-linear regression of the normalized (i.e., percent radioligand binding compared to that observed in the absence of test or reference compound) raw data is performed in Prism 4.0 (GraphPad Software) using the built-in three parameter logistic model describing ligand competition binding to radioligand-labeled sites: y=bottom+[(top-bottom)/(1+10×−logIC50)] where bottom equals the residual radioligand binding measured in the presence of 10 μM reference compound (i.e., non-specific binding) and top equals the total radioligand binding observed in the absence of competitor. The log IC50 (i.e., the log of the ligand concentration that reduces radioligand binding by 50%) is thus estimated from the data and used to obtain the Ki by applying the Cheng-Prusoff approximation: Ki=IC50/(1+[ligand]/KD) • where [ligand] equals the assay radioligand concentration and KD equals the affinity constant of the radioligand for the target receptor.
^1Radiolabeled Binding (IC50 and K1)
as §1, with “tested was” for “tested is”, “chlorpromazine was” for “chlorpromazine is”, “dilutions (5× assay” for “dilutions (5×assay”, “chlorpromazine were” for “chlorpromazine are”, “[…]” for “10 pM”
A stock concentration of 5 nM [^3H]LSD (lysergic acid diethyl amide) was prepared in 50 mM Tris-HCl, 10 mM MgCl2, 1 mM EDTA, pH 7.4 (Assay Buffer). Aliquots (50 μl) of radioligand were dispensed into the wells of a 96-well plate containing 100 μl of Assay Buffer. […]

5HT7 receptors [2] = target: T1, 5HT7 receptors; assay: Functional data (Kb), HitHunter cAMP enzyme fragment complementation assay with 5-HT as agonist; format: cell-based; design: expressed in transfected cells; G418 selection)
Method: Functional efficacy of the compounds of the disclosure on 5-HT7 serotonin receptors were measured in a cell based cAMP enzyme fragment complementation assay using the HitHunter cAMP assay (DiscoveRx). Cells stably expressing human 5HT7 receptors were plated in 96-well plates at 4000 cells/well, 16-20 hours prior to assay in growth media (Ultraculture medium, 2 mM GlutaMax and G418 1 mg/mL. Serial dilutions of the agonist, 5-hydroxytryptamine (5-HT), were prepared in a final concentration range of 10 μM to 10 nM. Compounds of the disclosure were prepared in 3-fold serial dilutions to obtain a final concentration range of 10 μM to 0.1 nM. Compounds of the disclosure are tested for agonist activity in the absence of 5-HT and antagonist activity in the presence of 5-HT. For the cAMP assay, the protocol was followed according to the instructions provided by the supplier. Briefly, cells were incubated with a compound of the disclosure for 30 minutes at 37° C. prior to addition of EC70 concentration of 5-HT. After an additional 30 minutes, cAMP antibody/cell lysis solution was added (20 μL/well) and incubated for 60 minutes at room temperature. cAMP XS+EA reagent is added (20 μL/well) and incubated for 2 hours at room temperature. Luminescence was read on the Envision Multilabel plate reader.

[3] = [3H]LSD radioligand, membranes of cells expressing recombinant 5HT7 receptors, read-out: IC50 (nM)^1
[4] = cAMP assay, cells stably expressing human 5HT7 receptors, antagonist activity in the presence of EC70 5-HT, read-out: Kb (nM)^2
[5] = Table 35, scaffold drawing 615, antagonist mode vs 5-HT, read-out: Kb
[6] = Table 35, scaffold drawing 615, read-out: IC50
[7] = Table 37, scaffold drawing 617, antagonist mode vs 5-HT, read-out: Kb

T1 sequence (P34969 whole entry): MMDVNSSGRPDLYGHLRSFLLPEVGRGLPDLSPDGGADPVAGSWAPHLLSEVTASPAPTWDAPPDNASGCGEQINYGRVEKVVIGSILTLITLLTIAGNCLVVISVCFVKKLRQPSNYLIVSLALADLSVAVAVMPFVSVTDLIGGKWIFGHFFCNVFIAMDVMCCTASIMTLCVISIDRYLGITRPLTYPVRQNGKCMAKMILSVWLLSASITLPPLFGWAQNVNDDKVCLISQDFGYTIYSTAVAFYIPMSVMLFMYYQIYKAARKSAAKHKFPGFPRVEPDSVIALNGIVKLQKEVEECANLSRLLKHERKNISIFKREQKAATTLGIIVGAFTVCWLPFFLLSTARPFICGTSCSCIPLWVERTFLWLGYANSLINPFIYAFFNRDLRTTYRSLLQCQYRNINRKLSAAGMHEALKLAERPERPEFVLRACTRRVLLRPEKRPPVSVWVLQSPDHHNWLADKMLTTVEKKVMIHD

Row | SMILES | IC50 (5HT7 receptors [1]; [3]) [nM] | Kb (5HT7 receptors [2]; [4]) [nM] | Kb (5HT7 receptors [2]; [5]) [nM] | other results
1 | CCC1(CC)CC(CCN2CCN(c3ccc(O)cc3)CC2)NC1=O (stereo not drawn) [3,3-diethyl-5-(2-(4-(4-hydroxyphenyl)piperazin-1-yl)ethyl)pyrrolidin-2-one] | 34 | 50 | – | –
2 | CCC1(CC)C[C@H](CN2CCN(c3ccc(C)cc3N3CCOCC3)CC2)NC1=O [(R)-3,3-diethyl-5-((4-(4-methyl-2-morpholinophenyl)piperazin-1-yl)methyl)pyrrolidin-2-one formate] | – | – | 43.8 | Ki (5HT7 receptors [1]; Table 35, scaffold drawing 615): 0.132 µM
3 | CCC1(CC)CC(CCN2CCN(c3ccccc3N3CCOCC3)CC2)NC1=O (stereo not drawn) [3,3-diethyl-5-(2-(4-(2-morpholinophenyl)piperazin-1-yl)ethyl)pyrrolidin-2-one] | 24 | 32.3 | – | –
4 | CCC1(CC)C[C@H](CCN2CCN(c3ccc(F)cc3)CC2)NC1=O [(R)-3,3-diethyl-5-(2-(4-(4-fluorophenyl)piperazin-1-yl)ethyl)pyrrolidin-2-one] | – | – | 0.81 | IC50 (5HT7 receptors [1]; [6]): 12.3 nM
5 | CCC1(CC)CC(CCN2CCN(c3ccc(C)cc3)CC2)NC1=O (stereo not drawn) [3,3-diethyl-5-(2-(4-(p-tolyl)piperazin-1-yl)ethyl)pyrrolidin-2-one] | 28 | 24.1 | – | –
6 | CCC1(CC)C[C@H](CCN2CCN(c3ccc(C)cc3)CC2)NC1=O [(R)-3,3-diethyl-5-(2-(4-(p-tolyl)piperazin-1-yl)ethyl)pyrrolidin-2-one] | – | – | 8.43 | Ki (5HT7 receptors [1]; Table 35, scaffold drawing 615): 0.011 µM
7 | CCC1(CC)C[C@H](CCN2CCN(c3ccc(Cl)c(Cl)c3)CC2)NC1=O [(R)-5-(2-(4-(3,4-dichlorophenyl)piperazin-1-yl)ethyl)-3,3-diethylpyrrolidin-2-one] | – | – | 6.19 | IC50 (5HT7 receptors [1]; [6]): 82.8 nM
8 | CCC1(CC)CC(CCN2CCN(c3ccc(F)cc3)CC2)NC1=O (stereo not drawn) [3,3-diethyl-5-(2-(4-(4-fluorophenyl)piperazin-1-yl)ethyl)pyrrolidin-2-one] | 8.5 | 8.98 | – | –
9 | CC(=O)N1CCC2(CC1)C[C@H](CCN1CCN(c3cccc(Cl)c3)CC1)NC2=O [drawing 617 n=2 R3=3-Cl-Phenyl R7=Acetyl, (R)-8-acetyl-3-(2-(4-(3-chlorophenyl)piperazin-1-yl)ethyl)-2,8-diazaspiro[4.5]decan-1-one] | – | – | – | Ki (5HT7 receptors [1]; Table 37, scaffold drawing 617): 0.063 µM; Kb (5HT7 receptors [2]; [7]): 5.04 nM
10 | CCC1(CC)C[C@@H](CCN2CCN(c3ccc(C)cc3)CC2)NC1=O [(S)-3,3-diethyl-5-(2-(4-(p-tolyl)piperazin-1-yl)ethyl)pyrrolidin-2-one] | – | – | – | Ki (5HT7 receptors [1]; Table 36, scaffold drawing 616): 0.079 µM; Kb (5HT7 receptors [2]; Table 36, scaffold drawing 616, antagonist mode vs 5-HT, read-out: Kb): 58.1 nM
11 | CCC1(CC)CC(CCN2CCN(c3ccc(C)cc3N3CCOCC3)CC2)NC1=O (stereo not drawn) [3,3-diethyl-5-(2-(4-(4-methyl-2-morpholinophenyl)piperazin-1-yl)ethyl)pyrrolidin-2-one] | 74 | 59.3 | – | –
12 | CCC1(CC)C[C@H](CCN2CCN(c3ccc(F)c(Cl)c3)CC2)NC1=O [(R)-5-(2-(4-(3-chloro-4-fluorophenyl)piperazin-1-yl)ethyl)-3,3-diethylpyrrolidin-2-one] | – | – | 1.92 | IC50 (5HT7 receptors [1]; [6]): 8.7 nM
13 | CS(=O)(=O)N1CCC2(CC1)C[C@H](CCN1CCN(c3ccc(F)cc3)CC1)NC2=O [drawing 617 n=2 R3=4-F-Phenyl R7=MeSO2, (R)-3-(2-(4-(4-fluorophenyl)piperazin-1-yl)ethyl)-8-(methylsulfonyl)-2,8-diazaspiro[4.5]decan-1-one] | – | – | – | Ki (5HT7 receptors [1]; Table 37, scaffold drawing 617): 0.089 µM; Kb (5HT7 receptors [2]; [7]): 30.7 nM
14 | CCC1(CC)C[C@H](CCN2CCN(c3cccc(Cl)c3)CC2)NC1=O [(R)-5-(2-(4-(3-chlorophenyl)piperazin-1-yl)ethyl)-3,3-diethylpyrrolidin-2-one] | – | – | 1.38 | IC50 (5HT7 receptors [1]; [6]): 9.9 nM
15 | CS(=O)(=O)N1CCC2(CC1)C[C@H](CCN1CCN(c3cccc(Cl)c3)CC1)NC2=O [drawing 617 n=2 R3=3-Cl-Phenyl R7=MeSO2, (R)-3-(2-(4-(3-chlorophenyl)piperazin-1-yl)ethyl)-8-(methylsulfonyl)-2,8-diazaspiro[4.5]decan-1-one] | – | – | – | Ki (5HT7 receptors [1]; Table 37, scaffold drawing 617): 0.107 µM; Kb (5HT7 receptors [2]; [7]): 13.5 nM
